According to ChEMBL document CHEMBL1129928, “Selectin-ligand interactions revealed by molecular dynamics simulation in solution” (J Med Chem, 1997):

Key:
Type in all cases: cell-based, Endothelial cell
P-selectin = target: T1, P-selectin (Homo sapiens, UniProt P16109); assay: Inhibitory activity against Selectin P expressed in endothelial cells
T1 sequence (P16109 whole entry): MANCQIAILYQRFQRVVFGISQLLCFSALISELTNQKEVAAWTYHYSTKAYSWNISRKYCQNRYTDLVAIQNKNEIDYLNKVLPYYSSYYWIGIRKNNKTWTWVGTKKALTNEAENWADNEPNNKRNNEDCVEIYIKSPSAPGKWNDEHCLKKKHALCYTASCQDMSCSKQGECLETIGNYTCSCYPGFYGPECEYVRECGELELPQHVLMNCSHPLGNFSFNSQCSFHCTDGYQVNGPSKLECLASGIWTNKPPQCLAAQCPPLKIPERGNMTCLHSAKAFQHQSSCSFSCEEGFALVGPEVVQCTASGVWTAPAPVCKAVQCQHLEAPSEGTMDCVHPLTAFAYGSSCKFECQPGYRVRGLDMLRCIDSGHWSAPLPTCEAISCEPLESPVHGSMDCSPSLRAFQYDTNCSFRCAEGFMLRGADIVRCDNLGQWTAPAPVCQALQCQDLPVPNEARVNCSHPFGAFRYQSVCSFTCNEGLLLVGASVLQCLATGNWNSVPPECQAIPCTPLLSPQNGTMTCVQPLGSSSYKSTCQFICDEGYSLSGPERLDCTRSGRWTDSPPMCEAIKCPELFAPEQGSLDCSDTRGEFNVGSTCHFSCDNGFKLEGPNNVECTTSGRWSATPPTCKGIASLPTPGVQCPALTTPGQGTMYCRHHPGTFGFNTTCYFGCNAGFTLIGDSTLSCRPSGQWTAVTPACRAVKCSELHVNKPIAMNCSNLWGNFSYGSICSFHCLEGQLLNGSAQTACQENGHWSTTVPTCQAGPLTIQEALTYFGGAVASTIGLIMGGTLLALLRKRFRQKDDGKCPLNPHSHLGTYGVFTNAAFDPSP

L-selectin = target: T2, L-selectin (Homo sapiens, UniProt P14151); assay: Inhibitory activity against Selectin L expressed in endothelial cells
T2 sequence (P14151 whole entry): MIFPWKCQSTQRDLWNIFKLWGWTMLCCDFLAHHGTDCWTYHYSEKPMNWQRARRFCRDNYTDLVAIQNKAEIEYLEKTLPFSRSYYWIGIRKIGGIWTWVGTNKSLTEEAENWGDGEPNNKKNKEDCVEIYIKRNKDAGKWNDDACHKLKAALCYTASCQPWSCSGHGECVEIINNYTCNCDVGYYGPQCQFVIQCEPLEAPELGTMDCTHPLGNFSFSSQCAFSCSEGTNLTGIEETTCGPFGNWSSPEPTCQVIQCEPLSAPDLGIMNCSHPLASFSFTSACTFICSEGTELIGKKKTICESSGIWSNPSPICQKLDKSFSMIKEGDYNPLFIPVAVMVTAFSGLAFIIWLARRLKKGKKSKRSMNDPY

E-selectin = target: T3, E-selectin (Homo sapiens, UniProt P16581); assay: Inhibitory activity against E-selectin expressed in endothelial cells
T3 sequence (P16581 whole entry): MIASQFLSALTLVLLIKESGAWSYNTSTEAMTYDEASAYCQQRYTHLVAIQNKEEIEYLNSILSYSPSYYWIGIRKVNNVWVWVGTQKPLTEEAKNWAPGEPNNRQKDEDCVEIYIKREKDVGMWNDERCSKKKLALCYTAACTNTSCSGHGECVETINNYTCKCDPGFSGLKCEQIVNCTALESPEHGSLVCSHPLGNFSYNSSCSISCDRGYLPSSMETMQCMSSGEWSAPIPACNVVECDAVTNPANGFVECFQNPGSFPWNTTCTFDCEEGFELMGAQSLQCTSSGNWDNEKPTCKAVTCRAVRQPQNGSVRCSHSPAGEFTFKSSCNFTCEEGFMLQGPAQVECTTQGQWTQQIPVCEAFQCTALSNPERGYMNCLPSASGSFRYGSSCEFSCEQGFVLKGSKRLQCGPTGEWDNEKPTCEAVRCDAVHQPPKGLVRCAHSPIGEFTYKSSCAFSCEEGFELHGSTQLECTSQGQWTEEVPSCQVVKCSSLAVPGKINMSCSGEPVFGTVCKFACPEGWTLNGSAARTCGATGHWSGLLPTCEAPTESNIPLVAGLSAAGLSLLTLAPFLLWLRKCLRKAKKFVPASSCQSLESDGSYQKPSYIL

IC50 (P-selectin)	IC50 (L-selectin)	IC50 (E-selectin)	Structure (SMILES)
100 µM	30 µM	280 µM	CCCCCCCCCCCCCCC(CCCCCCCCCCCCCC)CO[C@@H]1O[C@H](CO)[C@@H](O[C@@H]2O[C@H](CO)[C@H](O)[C@H](OS(=O)(=O)O)[C@H]2O)[C@H](O[C@@H]2O[C@@H](C)[C@@H](O)[C@@H](O)[C@@H]2O)[C@H]1O
300 µM	> 1000 µM	> 1000 µM	C[C@@H]1O[C@@H](O[C@@H]2[C@H](O)[C@H](O)O[C@@H](CO)[C@H]2O[C@@H]2O[C@@H](CO)[C@H](O)[C@H](OS(=O)(=O)O)[C@@H]2O)[C@@H](O)[C@@H](O)[C@@H]1O
> 1000 µM	> 1000 µM	600 µM	CC(=O)N[C@H]1[C@H]([C@H](O)[C@H](O)CO)O[C@@](O[C@@H]2[C@H](O)[C@H](O[C@H]3[C@H](O[C@@H]4O[C@@H](C)[C@@H](O)[C@H](O)[C@@H]4O)[C@H](NC(C)=O)C(O)O[C@H]3CO)O[C@@H](CO)[C@@H]2O)(C(=O)O)C[C@H]1O (some centres undefined)
